For test [1], the system named is MDA-MB-231. The test can be described thus: Cytotoxicity against human MDA-MB-231 cells assessed as growth inhibition after 72 hrs by MTT assay. The test is classed as functional, cell-based. Conditions: MDA-MB-231, 72 h. Background: Formazan colour is commonly taken as a measure of viable cells.
Test [2] can be described thus: Cytotoxicity against human HCT116 cells assessed as growth inhibition after 72 hrs by MTT assay. As to conditions: HCT-116, 72 h. Format: functional, cell-based.
Test [3] has as its system A549. The test can be described thus: Cytotoxicity against human A549 cells assessed as growth inhibition after 72 hrs by MTT assay. Format: functional, cell-based. As to conditions: A549, 72 h.
Test [4] concerns HCT-116. Briefly: Induction of apoptosis in human HCT116 cells assessed as apoptotic cells at 5 uM after 24 hrs by annexin V-FITC/propidium iodide staining based flow cytometric analysis. The test is classed as functional. For orientation: In flow cytometry, cells or beads pass a laser one at a time.
For test [5], the system named is HCT-116. The test can be described thus: Induction of apoptosis in human HCT116 cells assessed as apoptotic cells at 5 uM after 48 hrs by annexin V-FITC/propidium iodide staining based flow cytometric analysis. The test is classed as functional.

Each structure is given as a SMILES string.

One may read the IC50 as the point on the concentration scale where inhibition reaches its midpoint.

With `CC1=NN(c2ccccc2)C(=O)[C@@]12C(=O)C=CC[C@H]2c1cccc(C)c1`, the IC50 came out at 6.61 µM in test [1], 5.82 µM in test [2] and 3.5 µM in test [3].

As for `CC1=NN(c2ccccc2)C(=O)[C@@]12C(=O)C=CC[C@H]2c1ccccc1`, the half-maximal inhibitory concentration (IC50) in test [1] is 5.5 µM; in test [2] it was 4.4 µM; in test [3], 3.77 µM.

`CC1=NN(c2ccccc2)C(=O)[C@]12C(=O)C=CC[C@H]2c1ccccc1[N+](=O)[O-]`: the IC50 amounted to 32.4 µM in test [1], 11.2 µM in test [2] and 12.9 µM in test [3].

With `CC1=NN(c2ccccc2)C(=O)[C@@]12C(=O)C=CC[C@H]2c1ccc(C)cc1`, the half-maximal inhibitory concentration (IC50) in test [1] came out at 8.3 µM; in test [2], 5.21 µM; in test [3], 6.09 µM.

Regarding `CC1=NN(c2ccccc2)C(=O)[C@]12C(=O)C=CC[C@H]2c1ccc(C)cc1`, the half-inhibitory concentration (IC50) is 5.72 µM in test [1], 4.22 µM in test [2] and 2.89 µM in test [3].

For the compound `CC1=NN(c2ccc(C)cc2)C(=O)[C@@]12C(=O)C=CC[C@H]2c1ccc(C)cc1`, the IC50 worked out at 9.2 µM in test [1], 3.62 µM in test [2] and 6.79 µM in test [3].

`CC1=NN(c2ccc(C)cc2)C(=O)[C@]12C(=O)C=CC[C@H]2c1ccc(C)cc1`: the results for the half-inhibitory concentration (IC50) in test [1], in test [2] and in test [3] were 8.28 µM, 3.53 µM and 7.52 µM, respectively.

On to `COc1ccccc1[C@@H]1CC=CC(=O)[C@]12C(=O)N(c1ccccc1)N=C2C`, for which the 50% inhibitory concentration (IC50) amounted to 5.14 µM in test [1], 2.85 µM in test [2] and 3.96 µM in test [3]. The Activity in test [4] stood at 68.44%; in test [5], 72.13%.

Take `CC1=NN(c2ccccc2)C(=O)[C@]12C(=O)C=CC[C@H]2c1ccccc1`: the concentration for half-maximal inhibition (IC50) in test [1] was 5.8 µM; in test [2], 5.3 µM; in test [3], 8.29 µM.

`CC1=NN(c2ccccc2)C(=O)[C@]12C(=O)C=CC[C@H]2c1cccc(C)c1`: the IC50 in test [1] is 10.3 µM; in test [2], 9.58 µM; in test [3], 13.1 µM.

On to `CC1=NN(c2ccccc2)C(=O)[C@@]12C(=O)C=CC[C@@H]2c1ccccc1` (racemic), for which the IC50 in test [1] amounted to 9.31 µM; in test [2], 6.07 µM; in test [3] it was 7.77 µM.

Consider `CC1=NN(c2ccccc2)C(=O)[C@@]12C(=O)C=CC[C@@H]2c1cccc(C)c1` (racemic), for which the IC50 was 6.8 µM in test [1], 3.8 µM in test [2] and 4.51 µM in test [3].

`CC1=NN(c2ccc(C)cc2)C(=O)[C@@]12C(=O)C=CC[C@@H]2c1ccc(C)cc1` (racemic): the values for the IC50 in test [1], in test [2] and in test [3] were 8.12 µM, 4.15 µM and 4.32 µM, respectively.

In the case of `CC1=NN(c2ccc(C)cc2)C(=O)[C@]12C(=O)C=CC[C@@H]2c1ccc(C)cc1` (racemic), the half-maximal inhibitory concentration (IC50) in test [1] was 57.2 µM; in test [2], 14.6 µM; in test [3], 54.2 µM.

Take `CC1=NN(c2ccccc2)C(=O)[C@]12C(=O)C=CC[C@@H]2c1ccc(C)cc1` (racemic): the IC50 in test [1] came out at 6.24 µM; in test [2], 5.8 µM; in test [3], 8.6 µM.

For `CC1=NN(c2ccccc2)C(=O)[C@]12C(=O)C=CC[C@@H]2c1cccc(C)c1` (racemic), the IC50 in test [1] is 8 µM; in test [2], 5.49 µM; in test [3], 4.77 µM.

Take `COc1ccccc1[C@H]1CC=CC(=O)[C@@]12C(=O)N(c1ccccc1)N=C2C` (racemic): the IC50 in test [1] came out at 15.7 µM; in test [2] it was 13.9 µM; in test [3] it was 18.7 µM.

For `CC1=NN(c2ccccc2)C(=O)[C@@]12C(=O)C=CC[C@@H]2c1ccc(C)cc1` (racemic), the half-maximal inhibitory concentration (IC50) in test [1] worked out at 7.42 µM; in test [2], 5.22 µM; in test [3], 6.57 µM.

With `CC1=NN(c2ccccc2)C(=O)[C@]12C(=O)C=CC[C@@H]2c1ccccc1` (racemic), the figures for the IC50 in test [1], in test [2] and in test [3] were 9.08 µM, 6.04 µM and 9.18 µM, respectively.

Regarding `CC1=NN(c2ccccc2)C(=O)[C@@]12C(=O)C=CC[C@@H]2c1ccccc1[N+](=O)[O-]` (racemic), the figures for the IC50 in test [1], in test [2] and in test [3] were 68.3 µM, 66.8 µM and 66.4 µM, respectively.

With `COc1cccc2c1C(=O)c1c(O)c3c(c(O)c1C2=O)C[C@@](O)(C(=O)CO)C[C@@H]3O[C@H]1C[C@H](N)[C@H](O)[C@H](C)O1` [DOXORUBICIN], the IC50 in test [1] was 0.45 µM.

`O=C(CCCCCCC(=O)Nc1ccccc1)NO` [VORINOSTAT]: the Activity turned out to be 42.2% in test [4] and 62.4% in test [5].

Values taken from ChEMBL document CHEMBL3785052, “Novel spiropyrazolone antitumor scaffold with potent activity: Design, synthesis and structure-activity relationship” (Eur J Med Chem, 2016).
